Results on six compounds are retold here after patent US11542271B2, “Fused heteroaromatic-aniline compounds for treatment of dermal disorders” (NFlection Therapeutics, Inc., priority 2017, dated 2023).

One data set deals with T1, MAP2K1 (MEK1) (Homo sapiens, UniProt Q02750).
T1 construct: purchased ThermoFisher
In words: MEK Inhibition Assay (Biological Example 1b, Z'-LYTE). Conditions: Biological Example 1b (compounds 1, 3, 5, 7-8); read-out: Assay 1: biochemical MEK IC50. The method, then: MEK1 inhibitory activity of compounds were tested using the following procedure (protocol available at thermofisher.com/content/dam/LifeTech/migration/files/drug-discovery/pdfs.par.60256.file.dat/20130430%20ssbk%20customer%20protocol%20and%20assay%20conditions.pdf). The Z′-LYTE biochemical assay (ThermoFisher) employs a fluorescence-based, coupled-enzyme format and is based on the differential sensitivity of phosphorylated and non-phosphorylated peptides to proteolytic cleavage.
Test compounds in 100% DMSO were screened in 1% DMSO (final) in the well. For 10 point titrations, 3-fold serial dilutions are conducted from the starting concentration of 30 μM.
After the 1 hour incubation, 5 μL of a 1:1024 dilution of Development Reagent A (available from Invitrogen, catalog no. PV3295) was added.
ATP solutions were diluted to a 4× working concentration in Kinase Buffer (50 mM HEPES pH 7.5, 0.01% BRIJ-35, 10 mM MgCl2, 1 mM EGTA). ATP Km apparent was previously determined using a Z′-LYTE assay. The Development Reagent was diluted in Development Buffer (available from Invitrogen, catalog no. P3127).
Assay Protocol: 2.5 μL of 4× test compound or 100 nL of 100× Test Compound plus 2.4 μL Kinase Buffer, 5 μL of the 2× Peptide/Kinase Mixture, 2.5 μL of 4×ATP Solution were added to the plates and placed on a shake plate for 30-seconds. The kinase reaction was allowed to proceed for 60-minute at room temperature, before 5 μL of Development Reagent Solution was added, and the mixture agitated for 30-seconds on a shake plate. The mixture was incubated for 60-minute at room temperature. Fluorescence was measured using a plate reader and the data were analyzed.
This control yielded 100% cleaved peptide in the Development Reaction. The 100% Phosphorylation Control, which consisted of a synthetically phosphorylated peptide of the same sequence as the peptide substrate, was designed to allow for the calculation of percent phosphorylation. This control yielded a very low percentage of cleaved peptide in the Development Reaction. The 0% Phosphorylation and 100% Phosphorylation Controls allow for the calculation of the percent phosphorylation achieved in a specific reaction well.
The minimum emission ratio in a screen was established by the 0% Inhibition Control, which contained active kinase. This control was designed to produce a 10-50% phosphorylated peptide in the Kinase Reaction. Cascade assays may produce up to 70% phosphorylated peptide.
A known inhibitor control standard curve, 10 point titration, was run for each individual kinase on the same plate as the kinase to ensure the kinase was inhibited within an expected IC50 range previously determined.
The following controls are prepared for each concentration of Test Compound assayed. […] The expected value for a non-interfering compound should be 100%. Any value outside of 90% to 110% was flagged. […] The expected value for a non-fluorescence compound should be 0%. Any value >20% was flagged.
The data in Table A was calculated. XLfit from IDBS was used. The dose response curve was curve fit to model number 205 (sigmoidal dose-response model).

The test system of a further data set is A375 cells. As to the kind of experiment: A375 (BRAF) GI50 cell-based assay (Cell Titer-Glo). Conditions: Homo sapiens, A-375, 72 hours, read-out: Assay 2: A375 (BRAF) GI50. The method, then: (§1) Alternatively, the following procedure can be used to measure cell-based activity. Test compounds were dissolved in DMSO in 10 mM stock. Cell Titer-Glo® 2.0 Luminescent cell viability assay reagent was purchased from Promega (Madison, Wis.). A375 and HCT116 cell lines were purchased from American Type Culture Collection (Manassas, Va.). For A375 cells, cell culture media was DMEM+10% FBS. For HCT116 cells, cell culture media was McCoy's 5A+10% FBS. All media were supplemented with 100 μg/mL of penicillin, and 100 μg/mL of streptomycin. Cultures were maintained at 37° C. in a humidified atmosphere of 5% CO2 and 95% air.
(§2) Test compounds were diluted in DMSO solution with 10-dose and 3-fold dilutions in a source plate starting at 10 mM. […] Luminescence was recorded by Envision 2104 Multilabel Reader (PerkinElmer, Santa Clara, Calif.). The number of viable cells in culture was determined based on quantitation of the ATP present in each culture well. […] Luminescence was recorded by Envision 2104 Multilabel Reader (PerkinElmer, Santa Clara, Calif.). The number of viable cells in culture was determined based on quantitation of the ATP present in each culture well. […] All parameters in the equation were calculated by GraphPad Prism 4 program. […] Accordingly, GI50 is the value of 10^X, where X was calculated by the Curve Fitting Equation when Y=50 using Excel.

In a further data set the test system is HCT116 cells. In words: HCT116 (Kras) GI50 cell-based assay (Cell Titer-Glo). Conditions: Homo sapiens, HCT-116, 72 hours, read-out: Assay 3: HCT116 (Kras) GI50. The procedure: as §1, §2
Data set [1] in a line: S9 Stability Assay, human liver S9 fraction. It is filed as in vitro ADME. As to conditions: for half-life at 1 μM / microsomal CLint at 1 μM: human liver S9 fraction, pH 7.4. The procedure: Compounds were assessed for metabolic stability in human skin by assessing their rate of disappearance from human S9 skin fraction. Similarly, compounds were assessed for metabolic stability in human liver by assessing their rate of disappearance from human S9 liver fraction. The protocol below can be used to assess the difference between skin and hepatic metabolism.
The assay was carried out in 96-well microtiter plates at 37° C. Reaction mixtures (25 μL) contained a final concentration of 1 μM test compound, 2 mg/mL liver or skin S9 protein, and 1 mM NADPH in buffer (100 mM potassium phosphate, pH 7.4 buffer with 1 mM EDTA, 3 mM MgCl2). At each of the time points (0, 15, 30, and 60 minutes), 150 μL of quench solution (100% acetonitrile with 0.1% formic acid) with internal standard was transferred to each well. Besides the zero minute controls, mixtures containing the same components except the NADPH were also prepared as the negative control. Verapamil or testosterone was included as a positive control to verify assay performance. Plates were sealed and centrifuged at 4° C. for 15 minutes at 4000 rpm. The supernatant was transferred to fresh plates for LC/MS/MS analysis.
All samples were analyzed on LC/MS/MS using an AB Sciex API 4000 instrument, coupled to a Shimadzu LC-20AD LC Pump system. Analytical samples were separated using a Waters Atlantis T3 dC18 reverse phase HPLC column (20 mm×2.1 mm) at a flow rate of 0.5 mL/min. The mobile phase consisted of 0.1% formic acid in water (solvent A) and 0.1% formic acid in 100% acetonitrile (solvent B).
The extent of metabolism was calculated as the disappearance of the test compound, compared to the 0-min control reaction incubations. Initial rates were calculated for the compound concentration and used to determine t1/2 values and subsequently, the intrinsic clearance, CLint=(0.693) (1/t1/2 (min)) (mL incubation/mg of S9 protein).

The next data set addresses T2, MEK1 (Homo sapiens, UniProt Q02750).
T2 construct: N-terminal His-tagged recombinant human full length protein, expressed in insect cells; His (N); purchased Invitrogen PV3303; host or cells: insect cells
In words: MEK Inhibition Assay (Biological Example 1a, 33P-ATP, P81 filter-binding). Conditions: Biological Example 1a (used for compounds 2 and 6); read-out: Assay 1: biochemical MEK IC50. The procedure:
MEK1 inhibitory activity of compounds were tested using the following procedure.
• Reaction buffer: 20 mM Hepes (pH 7.5), 10 mM MgCl2, 1 mM EGTA, 0.02% Brij35, 0.02 mg/mL bovine serum albumin, 0.1 mM Na3V04, 2 mM DTT, 1% DMSO • Enzyme: MEK1, Invitrogen cat #PV3303 • N-terminal His-tagged recombinant human full length protein, expressed in insect cells. Activated in vitro by RAF1. MW=49.2 kDa, GenBank Accession No. NP_002746. • Substrate: 5 μM ERK2 (K52R), • Kinase-dead mutant, (GenBank Accession No. NM_0011949), aa2-358 with N-terminal His6 tag, MW=43.63 kDa, expressed in E. coli.
The substrate was prepared in freshly prepared Reaction Buffer. The kinase was delivered into the substrate solution and gently mixed. Test compounds were delivered in 100% DMSO into the kinase reaction mixture by Acoustic technology (Echo550; nanoliter range), and incubated for 20 min at room temperature. ^33P-ATP was delivered into the reaction mixture to initiate the reaction. The reaction mixture was incubated for 2 hours at room temperature. Kinase activity was detected by P81 filter-binding method.

Setting [2] is: human liver S9, unit min printed in b472 and Table 1, not in this table, read-out: Assay 4: human liver S9 half-life.
Where [3] appears, read: human, read-out: Assay 5: human liver S9 intrinsic clearance value (μL/min/mg protein).

Structures are written as SMILES. Read-outs that look alike come from different tables or passages of the source.

T1 sequence (Q02750 whole entry): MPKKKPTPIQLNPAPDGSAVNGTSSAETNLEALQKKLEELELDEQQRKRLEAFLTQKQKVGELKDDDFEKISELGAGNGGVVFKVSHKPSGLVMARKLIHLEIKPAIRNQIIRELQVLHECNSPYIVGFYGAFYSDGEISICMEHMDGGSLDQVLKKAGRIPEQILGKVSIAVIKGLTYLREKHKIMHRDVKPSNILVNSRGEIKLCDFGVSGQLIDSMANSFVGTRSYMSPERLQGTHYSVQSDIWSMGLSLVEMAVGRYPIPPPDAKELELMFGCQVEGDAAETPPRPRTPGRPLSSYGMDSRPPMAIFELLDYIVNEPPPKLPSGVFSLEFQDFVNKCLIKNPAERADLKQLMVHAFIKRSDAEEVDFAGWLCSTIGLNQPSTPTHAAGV
T2 sequence (Q02750 whole entry): as above

On to `C#Cc1ccc(Nc2sc3ncccc3c2C(=O)NOCCO)c(F)c1` [Ex. 1, 2-((4-ethynyl-2-fluorophenyl)amino)-N-(2-hydroxyethoxy)thieno[2,3-b]pyridine-3-carboxamide], for which the IC50 at MAP2K1 (MEK1) came out at 1030 nM. In addition, the results for the concentration for 50% growth inhibition (GI50) in the data set on A375 cells and in the data set on HCT116 cells were 141 nM and 348 nM, respectively. Also, the half-life at 1 μM in data set [1] (setting [2]) amounted to 29 min. Besides, the microsomal CLint at 1 μM in data set [1] (setting [3]) stood at 11.8 µL/min/mg.
In the case of `CSc1ccc(Nc2sc3ncccc3c2C(=O)NOCCO)c(F)c1` [Ex. 2, 2-((2-fluoro-4-(methylthio)phenyl)amino)-N-(2-hydroxyethoxy)thieno[2,3-b]pyridine-3-carboxamide], the IC50 at MEK1 stood at 915 nM. Besides, the GI50 with A375 cells is 145 nM; with HCT116 cells, 257 nM. Further, the half-life at 1 μM in data set [1] (setting [2]) was 16 min. Moreover, the microsomal CLint at 1 μM in data set [1] (setting [3]) came to 21.2 µL/min/mg.
For `O=C(NOCCO)c1c(Nc2ccc(I)cc2F)sc2ncccc12` [Ex. 3, 2-((2-Fluoro-4-iodophenyl)amino)-N-(2-hydroxyethoxy)thieno[2,3-b]pyridine-3-carboxamide], the IC50 at MAP2K1 (MEK1) was determined as 74 nM. For the same compound, the “Assay 5: human liver S9 intrinsic clearance value (μL/min/mg protein)” value in data set [1] (human liver S9) amounted to 13.35 μL/min/mg protein. For the same compound, the half-life at 1 μM in data set [1] (Table 1, 1 μM test compound, 2 mg/mL S9 protein, NADPH, read-out: Liver S9 t1/2) is 26 min. The microsomal CLint at 1 μM in data set [1] (Table 1, read-out: CLint (μL/min/mg protein)) was found to be 13.3 µL/min/mg.
Turning to `Cc1ccc2c(C(=O)NOCCO)c(Nc3ccc(I)cc3F)sc2n1` [Ex. 5, 2-((2-Fluoro-4-iodophenyl)amino)-N-(2-hydroxyethoxy)-6-methylthieno[2,3-b]pyridine-3-carboxamide], at MAP2K1 (MEK1), the IC50 is 256 nM. Further, the half-life at 1 μM in data set [1] (setting [2]) was found to be 54 min. The microsomal CLint at 1 μM in data set [1] (setting [3]) was found to be 6.36 µL/min/mg.
Turning to `COc1ccc2c(C(=O)NOCCO)c(Nc3ccc(I)cc3F)sc2n1` [Ex. 6, 2-((2-fluoro-4-iodophenyl)amino)-N-(2-hydroxyethoxy)-6-methoxythieno[2,3-b]pyridine-3-carboxamide], the IC50 on MEK1 was determined as 2910 nM.
As to `COc1cnc2sc(Nc3ccc(I)cc3F)c(C(=O)NOCCO)c2c1` [Ex. 7, 2-((2-Fluoro-4-iodophenyl)amino)-N-(2-hydroxyethoxy)-5-methoxythieno[2,3-b]pyridine-3-carboxamide], the IC50 at MAP2K1 (MEK1) was determined as 150 nM. In addition, in data set [1] (setting [2]), the half-life at 1 μM came out at 68 min. In addition, the microsomal CLint at 1 μM in data set [1] (setting [3]) stood at 5.1 µL/min/mg.
